Measurements as given in patent US10377753B2, “Substituted 4-azaindoles and their use as GluN2B receptor modulators” (Janssen Pharmaceutica NV, priority 2015, dated 2019).

The compounds below were run against cloned human NR1/NR2B ion channels (Homo sapiens (Human), UniProt Q05586+Q13224) (assay: HNR2BC: effects of test articles on cloned human NR1/NR2B ion channels expressed in mammalian cells (FLIPR calcium flux)). Details: cloned human NR1/NR2B ion channels, Table 5.
Assay type: cell-based
Summary of the method: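 In a stable Tet-On-induced cell line expressing human GluN1/GluN2B, Calcium 5-loaded cells were preincubated 5 min with compound, then stimulated 5 min with glutamate at ~EC80 plus 10 μM glycine, in pH 7.4 HEPES buffer. FLIPR calcium fluorescence was normalized to control wells.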

cloned human NR1/NR2B ion channels, sequence (Q13224 27-1484, other chains not shown): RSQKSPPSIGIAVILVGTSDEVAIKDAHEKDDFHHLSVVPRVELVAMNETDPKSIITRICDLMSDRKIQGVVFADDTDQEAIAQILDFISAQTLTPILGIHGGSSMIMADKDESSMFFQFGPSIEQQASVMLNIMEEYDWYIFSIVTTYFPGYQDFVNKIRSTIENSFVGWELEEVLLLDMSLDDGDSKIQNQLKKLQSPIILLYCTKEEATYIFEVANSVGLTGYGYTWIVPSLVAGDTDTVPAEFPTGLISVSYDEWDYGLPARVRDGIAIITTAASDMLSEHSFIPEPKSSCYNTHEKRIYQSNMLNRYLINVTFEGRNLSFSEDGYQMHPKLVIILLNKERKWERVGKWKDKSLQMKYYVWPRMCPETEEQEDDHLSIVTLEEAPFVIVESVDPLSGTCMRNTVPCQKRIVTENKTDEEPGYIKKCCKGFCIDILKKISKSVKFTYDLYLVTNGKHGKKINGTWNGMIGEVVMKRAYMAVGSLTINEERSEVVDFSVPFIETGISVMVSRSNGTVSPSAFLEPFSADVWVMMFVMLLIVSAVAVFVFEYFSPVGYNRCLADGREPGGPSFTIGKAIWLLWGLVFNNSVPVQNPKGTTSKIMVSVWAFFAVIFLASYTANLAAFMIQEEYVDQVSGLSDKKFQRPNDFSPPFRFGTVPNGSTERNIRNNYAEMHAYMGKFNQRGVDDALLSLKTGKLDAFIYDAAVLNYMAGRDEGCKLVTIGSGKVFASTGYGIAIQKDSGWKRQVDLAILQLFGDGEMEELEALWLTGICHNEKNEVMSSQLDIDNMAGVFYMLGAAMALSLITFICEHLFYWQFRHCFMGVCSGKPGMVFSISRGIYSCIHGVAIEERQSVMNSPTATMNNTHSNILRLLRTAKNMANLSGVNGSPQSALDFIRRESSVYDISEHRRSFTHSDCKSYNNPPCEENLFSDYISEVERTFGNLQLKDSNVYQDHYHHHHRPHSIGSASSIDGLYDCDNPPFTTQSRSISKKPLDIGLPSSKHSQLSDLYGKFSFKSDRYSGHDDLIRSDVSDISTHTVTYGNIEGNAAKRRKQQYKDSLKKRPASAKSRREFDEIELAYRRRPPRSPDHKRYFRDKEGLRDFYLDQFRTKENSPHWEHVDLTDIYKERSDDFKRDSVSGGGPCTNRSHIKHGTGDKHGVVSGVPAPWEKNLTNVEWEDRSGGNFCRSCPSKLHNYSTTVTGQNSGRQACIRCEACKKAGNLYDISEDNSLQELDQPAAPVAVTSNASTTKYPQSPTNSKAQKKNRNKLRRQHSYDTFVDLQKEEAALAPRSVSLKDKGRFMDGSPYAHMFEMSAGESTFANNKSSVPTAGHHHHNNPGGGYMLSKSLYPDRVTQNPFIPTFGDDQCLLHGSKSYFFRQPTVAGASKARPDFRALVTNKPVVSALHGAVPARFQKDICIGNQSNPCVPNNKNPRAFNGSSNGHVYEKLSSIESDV

IC50 [nM] | Structure (SMILES)
63.1 | CN(C)C(=O)Cn1cc(F)c2ncc(-c3ccc(F)c(C(F)(F)F)c3)cc21 [Example 605, 2-[3-Fluoro-6-[4-fluoro-3-(trifluoromethyl)phenyl]pyrrolo[3,2-b]pyridin-1-yl]-N,N-dimethyl-acetamide]
39.8 | Cc1cccc(-c2cnc3c(F)cn(CC(=O)N4CC(F)C4)c3c2)c1 [Example 607, 1-(3-Fluoroazetidin-1-yl)-2-[3-fluoro-6-(m-tolyl)pyrrolo[3,2-b]pyridin-1-yl]ethanone]
20 | O=C(Cn1cc(F)c2ncc(-c3ccc(F)c(Cl)c3)cc21)N1CC(F)C1 [Example 608, 2-[6-(3-Chloro-4-fluoro-phenyl)-3-fluoro-pyrrolo[3,2-b]pyridin-1-yl]-1-(3-fluoroazetidin-1-yl)ethanone]
31.6 | Cc1cc(-c2cnc3c(C)cn(CC(=O)N4CCCC4)c3c2)ccc1F [Example 616, 2-[6-(4-Fluoro-3-methyl-phenyl)-3-methyl-pyrrolo[3,2-b]pyridin-1-yl]-1-pyrrolidin-1-yl-ethanone]
50.1 | CCN(C)C(=O)Cn1cc(C)c2ncc(-c3ccc(F)c(C)c3)cc21 [Example 617, N-Ethyl-2-[6-(4-fluoro-3-methyl-phenyl)-3-methyl-pyrrolo[3,2-b]pyridin-1-yl]-N-methyl-acetamide]
31.6 | Cc1cc(-c2cnc3c(C)cn(CC(=O)N4CC(F)(F)C4)c3c2)ccc1F [Example 618, 1-(3,3-Difluoroazetidin-1-yl)-2-[6-(4-fluoro-3-methyl-phenyl)-3-methyl-pyrrolo[3,2-b]pyridin-1-yl]ethanone]
39.8 | Cc1cn(CC(=O)N2CCCC2)c2cc(-c3ccc(F)c(F)c3)cnc12 [Example 619, 2-[6-(3,4-Difluorophenyl)-3-methyl-pyrrolo[3,2-b]pyridin-1-yl]-1-pyrrolidin-1-yl-ethanone]
25.1 | CCN(C)C(=O)Cn1cc(C)c2ncc(-c3ccc(F)c(F)c3)cc21 [Example 620, 2-[6-(3,4-Difluorophenyl)-3-methyl-pyrrolo[3,2-b]pyridin-1-yl]-N-ethyl-N-methyl-acetamide]
631 | Cc1cn(CC(=O)N2CC(F)(F)C2)c2cc(-c3ccc(F)c(F)c3)cnc12 [Example 621, 1-(3,3-Difluoroazetidin-1-yl)-2-[6-(3,4-difluorophenyl)-3-methyl-pyrrolo[3,2-b]pyridin-1-yl]ethanone]
15.8 | Cc1cn(CC(=O)N2CCCC2)c2cc(-c3cc(F)cc(F)c3)cnc12 [Example 623, 2-[6-(3,5-Difluorophenyl)-3-methyl-pyrrolo[3,2-b]pyridin-1-yl]-1-pyrrolidin-1-yl-ethanone]
79.4 | Cc1c(F)ccc(-c2cnc3c(C)cn(CC(=O)N4CCCC4)c3c2)c1F [Example 624, 2-[6-(2,4-Difluoro-3-methyl-phenyl)-3-methyl-pyrrolo[3,2-b]pyridin-1-yl]-1-pyrrolidin-1-yl-ethanone]
631 | Cc1c(F)ccc(-c2cnc3c(C)cn(CC(=O)N4CC(F)(F)C4)c3c2)c1F [Example 626, 1-(3,3-Difluoroazetidin-1-yl)-2-[6-(2,4-difluoro-3-methyl-phenyl)-3-methyl-pyrrolo[3,2-b]pyridin-1-yl]ethanone]
158 | Cc1c(F)ccc(-c2cnc3c(C)cn(CC(=O)N4CCC4)c3c2)c1F [Example 627, 1-(Azetidin-1-yl)-2-[6-(2,4-difluoro-3-methyl-phenyl)-3-methyl-pyrrolo[3,2-b]pyridin-1-yl]ethanone]

The next lines start with the compound.

Structure (SMILES) | IC50 [nM]
Cc1cc(-c2cnc3c(Cl)cn(CC(=O)N(C)C)c3c2)c(C)s1 [Example 599, 2-[3-Chloro-6-(2,5-dimethyl-3-thienyl)pyrrolo[3,2-b]pyridin-1-yl]-N,N-dimethyl-acetamide] | 100
CN(C)C(=O)Cn1cc(Cl)c2ncc(-c3cccc(C(F)(F)F)c3)cc21 [Example 600, 2-[3-Chloro-6-[3-(trifluoromethyl)phenyl]pyrrolo[3,2-b]pyridin-1-yl]-N,N-dimethyl-acetamide] | 79.4
CN(C)C(=O)Cn1cc(Cl)c2ncc(-c3cccc(C(F)(F)F)n3)cc21 [Example 601, 2-[3-Chloro-6-[6-(trifluoromethyl)-2-pyridyl]pyrrolo[3,2-b]pyridin-1-yl]-N,N-dimethyl-acetamide] | 126
Cc1cc(-c2cnc3c(Cl)cn(CC(=O)N(C)C)c3c2)sc1Cl [Example 602, 2-[3-Chloro-6-(5-chloro-4-methyl-2-thienyl)pyrrolo[3,2-b]pyridin-1-yl]-N,N-dimethyl-acetamide] | 10
CN(C)C(=O)Cn1cc(Cl)c2ncc(-c3ccc(C(F)(F)F)s3)cc21 [Example 603, 2-[3-Chloro-6-[5-(trifluoromethyl)-2-thienyl]pyrrolo[3,2-b]pyridin-1-yl]-N,N-dimethyl-acetamide] | 63.1
CN(C)C(=O)Cn1ccc2ncc(-c3cc4ccccc4s3)cc21 [Example 604, 2-[6-(Benzothiophen-2-yl)pyrrolo[3,2-b]pyridin-1-yl]-N,N-dimethyl-acetamide] | 200
CN(C)C(=O)Cn1cc(F)c2ncc(-c3cccc(Cl)c3F)cc21 [Example 606, 2-[6-(3-Chloro-2-fluoro-phenyl)-3-fluoro-pyrrolo[3,2-b]pyridin-1-yl]-N,N-dimethyl-acetamide] | 63.1
CN(C)C(=O)Cn1cc(C(F)(F)F)c2ncc(-c3cc(F)cc(F)c3)cc21 [Example 611, 2-[6-(3,5-Difluorophenyl)-3-(trifluoromethyl)pyrrolo[3,2-b]pyridin-1-yl]-N,N-dimethyl-acetamide] | 10
FC(F)(F)c1cccc(-c2cnc3c(Cl)cn(Cc4cccnc4)c3c2)c1 [Example 612, 3-Chloro-1-(3-pyridylmethyl)-6-[3-(trifluoromethyl)phenyl]pyrrolo[3,2-b]pyridine] | 31.6
FC(F)(F)c1cccc(-c2cnc3ccn(Cc4cccnn4)c3c2)c1 [Example 613, 1-(Pyridazin-3-ylmethyl)-6-[3-(trifluoromethyl)phenyl]pyrrolo[3,2-b]pyridine] | 2510
Cc1cc(-c2cnc3c(Cl)cn(Cc4cccnn4)c3c2)ccc1F [Example 614, 3-Chloro-6-(4-fluoro-3-methyl-phenyl)-1-(pyridazin-3-ylmethyl)pyrrolo[3,2-b]pyridine] | 31.6
FC(F)(F)c1cccc(-c2cnc3c(Cl)cn(Cc4cccnn4)c3c2)c1 [Example 615, 3-Chloro-1-(pyridazin-3-ylmethyl)-6-[3-(trifluoromethyl)phenyl]pyrrolo[3,2-b]pyridine] | 25.1
Cc1c(F)ccc(-c2cnc3c(C)cn(CC(=O)N(C)C)c3c2)c1F [Example 622, 2-[6-(2,4-Difluoro-3-methyl-phenyl)-3-methyl-pyrrolo[3,2-b]pyridin-1-yl]-N,N-dimethyl-acetamide] | 100
CCN(C)C(=O)Cn1cc(C)c2ncc(-c3ccc(F)c(C)c3F)cc21 [Example 625, 2-[6-(2,4-Difluoro-3-methyl-phenyl)-3-methyl-pyrrolo[3,2-b]pyridin-1-yl]-N-ethyl-N-methyl-acetamide] | 100
Cc1cn(CC(=O)N(C)C)c2cc(-c3ccc(Cl)s3)cnc12 [Example 628, 2-[6-(5-Chloro-2-thienyl)-3-methyl-pyrrolo[3,2-b]pyridin-1-yl]-N,N-dimethyl-acetamide] | 100
